Results published in ChEMBL document CHEMBL1131776, “Potent, elective human beta3 adrenergic receptor agonists containing a substituted indoline-5-sulfonamide pharmacophore” (Bioorg Med Chem Lett, 1999).

Experiments:
[1] = biological target: Beta-1 adrenergic receptor (Homo sapiens, UniProt P08588); test: biochemical
Description: In vitro binding affinity towards cloned human beta-1 adrenergic receptor using [125I]iodocyanopindolol as radioligand to stimulate increase in cAMP in CHO cells

[2] = biological target: Beta-2 adrenergic receptor (Homo sapiens, UniProt P07550); test: biochemical
Description: In vitro binding affinity towards cloned human beta-2 adrenergic receptor using [125I]iodocyanopindolol as radioligand to stimulate increase in cAMP in CHO cells

[3] = biological target: T1, Beta-3 adrenergic receptor (Homo sapiens, UniProt P13945); test: In vitro agonistic activity against cloned human beta-3 adrenergic receptor […] increase in cAMP in CHO cells; type: functional, cell-based
Target sequence in this assay (P13945 whole entry): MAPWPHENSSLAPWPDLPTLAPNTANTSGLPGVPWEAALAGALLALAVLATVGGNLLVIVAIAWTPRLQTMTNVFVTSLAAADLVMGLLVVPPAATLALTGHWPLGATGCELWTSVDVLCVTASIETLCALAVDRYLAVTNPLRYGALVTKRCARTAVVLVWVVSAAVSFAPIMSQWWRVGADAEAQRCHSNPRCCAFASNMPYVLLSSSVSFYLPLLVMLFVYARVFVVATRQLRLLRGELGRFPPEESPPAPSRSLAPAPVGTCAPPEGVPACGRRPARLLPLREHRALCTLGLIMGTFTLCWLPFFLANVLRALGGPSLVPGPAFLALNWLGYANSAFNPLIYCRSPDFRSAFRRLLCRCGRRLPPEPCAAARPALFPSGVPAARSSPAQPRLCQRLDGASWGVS

[4] = biological target: T1, Beta-3 adrenergic receptor; test: Adenylyl cyclase activation as percent maximal stimulation with isoproterenol at 100 nM; type: functional
Target sequence in this assay (P13945 whole entry, looked up): as the sequence (P13945 whole entry) above

Chain of Beta-1 adrenergic receptor (P08588 whole entry): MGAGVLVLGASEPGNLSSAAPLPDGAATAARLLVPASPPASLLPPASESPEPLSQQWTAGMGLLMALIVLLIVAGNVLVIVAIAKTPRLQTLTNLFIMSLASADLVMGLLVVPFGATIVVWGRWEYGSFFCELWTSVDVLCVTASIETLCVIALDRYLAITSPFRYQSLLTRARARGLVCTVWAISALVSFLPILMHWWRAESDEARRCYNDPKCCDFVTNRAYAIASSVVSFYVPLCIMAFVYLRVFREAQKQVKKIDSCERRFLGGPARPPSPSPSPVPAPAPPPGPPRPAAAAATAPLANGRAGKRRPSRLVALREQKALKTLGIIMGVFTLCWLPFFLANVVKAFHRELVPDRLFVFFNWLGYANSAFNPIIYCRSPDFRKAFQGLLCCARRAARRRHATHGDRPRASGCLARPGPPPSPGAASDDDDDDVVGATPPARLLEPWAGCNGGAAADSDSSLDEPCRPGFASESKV
Chain of Beta-2 adrenergic receptor (P07550 whole entry): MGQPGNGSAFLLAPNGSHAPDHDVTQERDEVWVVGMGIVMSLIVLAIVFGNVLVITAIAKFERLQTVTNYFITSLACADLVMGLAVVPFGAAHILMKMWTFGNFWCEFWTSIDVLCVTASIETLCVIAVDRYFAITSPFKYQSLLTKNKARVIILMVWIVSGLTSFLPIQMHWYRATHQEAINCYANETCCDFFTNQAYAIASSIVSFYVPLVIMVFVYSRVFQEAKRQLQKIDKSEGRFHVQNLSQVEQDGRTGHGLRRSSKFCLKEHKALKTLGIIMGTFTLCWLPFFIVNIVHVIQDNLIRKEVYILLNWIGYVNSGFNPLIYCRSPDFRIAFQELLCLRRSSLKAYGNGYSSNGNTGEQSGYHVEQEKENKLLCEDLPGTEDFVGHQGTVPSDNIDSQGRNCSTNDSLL

`O=S(=O)(Nc1ccccc1)c1ccc2c(c1)CCN2c1cccc(CCCC2CCCC2)c1` was tested, and the IC50 [1] was 4000 nM, the IC50 [2] was 7500 nM and the EC50 [3] was 5 nM.
In the case of `CCCCCCNC(=O)N(C)c1ccc(S(=O)(=O)Nc2ccc(CCNC[C@H](O)c3cccnc3)cc2)cc1`, the IC50 [1] is reported as 10000 nM, the IC50 [2] is reported as 10000 nM and the Activation [4] is reported as 20%.
With `CCCCCCc1nc(N2CCc3cc(S(=O)(=O)Nc4ccccc4)ccc32)no1` the IC50 [1] was 600 nM, the IC50 [2] was 52 nM and the EC50 [3] was 13 nM.
With `CN(C)C(=O)N1CCc2cc(S(=O)(=O)Nc3ccccc3)ccc21` the IC50 [1] was 9000 nM, the IC50 [2] was 7000 nM and the Activation [4] was 8%.
`O=S(=O)(Nc1ccccc1)c1ccc2c(c1)CCN2c1nc(CCCC2CCCC2)cs1` showed an IC50 [1] of 4000 nM, an IC50 [2] of 900 nM and an EC50 [3] of 3.2 nM.
With `O=S(=O)(Nc1ccccc1)c1ccc2c(c1)CCN2c1noc(CCCC2CCCC2)n1` the IC50 [1] was 330 nM, the IC50 [2] was 42 nM and the Activation [4] was 20%.
`CCCCCCCCc1ccnc(N2CCc3cc(S(=O)(=O)Nc4ccccc4)ccc32)n1` was tested, and the IC50 [1] was 1000 nM, the IC50 [2] was 530 nM and the EC50 [3] was 2.4 nM.
In the case of `CNC(=O)N1CCc2cc(S(=O)(=O)Nc3ccccc3)ccc21`, the IC50 [1] is reported as 100000 nM, the IC50 [2] is reported as 7300 nM and the EC50 [3] is reported as 55 nM.
In the case of `CN(CCc1ccccc1)C(=O)N1CCc2cc(S(=O)(=O)Nc3ccccc3)ccc21`, the IC50 [1] is reported as 10000 nM, the IC50 [2] is reported as 2500 nM and the EC50 [3] is reported as 55 nM.
With `Cc1csc(N2CCc3cc(S(=O)(=O)Nc4ccccc4)ccc32)n1` the IC50 [1] was 4000 nM, the IC50 [2] was 750 nM and the EC50 [3] was 8.1 nM.
For `CCCCCCc1csc(N2CCc3cc(S(=O)(=O)Nc4ccccc4)ccc32)n1`, the IC50 [1] was 1400 nM, the IC50 [2] was 510 nM and the EC50 [3] was 0.9 nM.
`CCCCCCC(=O)N1CCc2cc(S(=O)(=O)Nc3ccccc3)ccc21` was tested, and the IC50 [1] was 10000 nM, the IC50 [2] was 2000 nM and the EC50 [3] was 88 nM.
`CCCCCCCCc1nc(N2CCc3cc(S(=O)(=O)Nc4ccccc4)ccc32)no1` gave an IC50 [1] of 580 nM, an IC50 [2] of 100 nM and an EC50 [3] of 31 nM.
For `CCCCCCc1cccc(N2CCc3cc(S(=O)(=O)Nc4ccccc4)ccc32)n1`, the IC50 [1] was 900 nM, the IC50 [2] was 140 nM and the EC50 [3] was 1.2 nM.
`CCCCCCCCc1cccc(N2CCc3cc(S(=O)(=O)Nc4ccccc4)ccc32)n1` was tested, and the IC50 [1] was 220 nM, the IC50 [2] was 63 nM and the EC50 [3] was 1 nM.
`CCCCCCCCc1cnc(N2CCc3cc(S(=O)(=O)Nc4ccccc4)ccc32)o1` was tested, and the IC50 [1] was 4200 nM, the IC50 [2] was 180 nM and the EC50 [3] was 3.7 nM.
Work on `CCCCCCNC(=O)N1CCc2cc(S(=O)(=O)Nc3ccccc3)ccc21` yielded an IC50 [1] of 40000 nM, an IC50 [2] of 36000 nM and an EC50 [3] of 6.9 nM.
In the case of `CN(C(=O)N1CCc2cc(S(=O)(=O)Nc3ccccc3)ccc21)C(C)(C)Cc1ccccc1`, the IC50 [1] is reported as 3000 nM, the IC50 [2] is reported as 8000 nM and the Activation [4] is reported as 17%.
For `CCCCCCCCc1csc(N(C)c2ccc(S(=O)(=O)Nc3ccccc3)cc2)n1`, the IC50 [1] was 1500 nM, the IC50 [2] was 440 nM and the EC50 [3] was 5.5 nM.
In the case of `CCCCCCCCC(=O)N1CCc2cc(S(=O)(=O)Nc3ccccc3)ccc21`, the IC50 [1] is reported as 1800 nM, the IC50 [2] is reported as 1000 nM and the EC50 [3] is reported as 7 nM.
In the case of `CCCCCCCCNC(=O)N1CCc2cc(S(=O)(=O)Nc3ccccc3)ccc21`, the IC50 [1] is reported as 1000 nM, the IC50 [2] is reported as 630 nM and the EC50 [3] is reported as 0.73 nM.
`CCCCCCCCc1csc(Nc2ccc(S(=O)(=O)Nc3ccccc3)cc2)n1` showed an IC50 [1] of 650 nM, an IC50 [2] of 340 nM and an EC50 [3] of 0.8 nM.
`CCCCCCCCc1csc(N2CCc3cc(S(=O)(=O)Nc4ccccc4)ccc32)n1` gave an IC50 [1] of 2600 nM, an IC50 [2] of 1300 nM and an EC50 [3] of 0.93 nM.
`O=S(=O)(Nc1ccc(CCNC[C@H](O)COc2ccc(O)cc2)cc1)c1ccc2c(c1)CCN2` was tested, and the EC50 [3] was 0.65 nM.
Work on `CCCCCCN(C)C(=O)N1CCc2cc(S(=O)(=O)Nc3ccccc3)ccc21` yielded an IC50 [1] of 10000 nM, an IC50 [2] of 6500 nM and an EC50 [3] of 47 nM.
In the case of `CCCCCCc1ccnc(N2CCc3cc(S(=O)(=O)Nc4ccccc4)ccc32)n1`, the IC50 [1] is reported as 1400 nM, the IC50 [2] is reported as 620 nM and the EC50 [3] is reported as 5.1 nM.
`CCCCCCc1cccc(N2CCc3cc(S(=O)(=O)Nc4ccccc4)ccc32)c1` gave an IC50 [1] of 700 nM, an IC50 [2] of 460 nM and an EC50 [3] of 1.8 nM.
`CCCCCCCCN(C)C(=O)N1CCc2cc(S(=O)(=O)Nc3ccccc3)ccc21` showed an IC50 [1] of 970 nM, an IC50 [2] of 1000 nM and an EC50 [3] of 18 nM.
In the case of `CCCCCCc1ccc(N2CCc3cc(S(=O)(=O)Nc4ccccc4)ccc32)nc1`, the IC50 [1] is reported as 1800 nM, the IC50 [2] is reported as 240 nM and the EC50 [3] is reported as 1.6 nM.
Work on `CCCCCCCCc1cccc(N2CCc3cc(S(=O)(=O)Nc4ccccc4)ccc32)c1` yielded an IC50 [1] of 2500 nM, an IC50 [2] of 1500 nM and an EC50 [3] of 1.3 nM.
`O=S(=O)(Nc1ccccc1)c1ccc2c(c1)CCN2c1cccc(CCCC2CCCC2)n1` was tested, and the IC50 [1] was 3000 nM, the IC50 [2] was 450 nM and the EC50 [3] was 1.7 nM.
